From the kinase profiling compilation of Christmann-Franck et al. (2016)

Key:
Experiment in all cases: radiometric filter-binding kinase assay, Kinase HotSpot
Conditions in all cases: compound 0.5 µM; ATP 10 µM
[1] = target: ROS1 (human) (UniProt P08922)
[2] = target: DCLK2 (human) (UniProt Q8N568)
[3] = target: MAPK10 (human) (UniProt P53779)
[4] = target: ULK3 (human) (UniProt Q6PHR2)
[5] = target: MINK1 (human) (UniProt Q8N4C8)
[6] = target: TTK (human) (UniProt P33981)
[7] = target: STK10 (human) (UniProt O94804)
[8] = target: CDK2 CCNA2 (human) (UniProt P24941+P20248)
[9] = target: MAPKAPK3 (human) (UniProt Q16644)
[10] = target: CSNK1G2 (human) (UniProt P78368)
[11] = target: NTRK1 (human) (UniProt P04629)
[12] = target: CDK2 CCNE1 (human) (UniProt P24941+P24864)
[13] = target: LRRK2 (human) (UniProt Q5S007)
[14] = target: BRSK2 (human) (UniProt Q8IWQ3)
BRSK2 (human), sequence (Q8IWQ3 whole entry, looked up): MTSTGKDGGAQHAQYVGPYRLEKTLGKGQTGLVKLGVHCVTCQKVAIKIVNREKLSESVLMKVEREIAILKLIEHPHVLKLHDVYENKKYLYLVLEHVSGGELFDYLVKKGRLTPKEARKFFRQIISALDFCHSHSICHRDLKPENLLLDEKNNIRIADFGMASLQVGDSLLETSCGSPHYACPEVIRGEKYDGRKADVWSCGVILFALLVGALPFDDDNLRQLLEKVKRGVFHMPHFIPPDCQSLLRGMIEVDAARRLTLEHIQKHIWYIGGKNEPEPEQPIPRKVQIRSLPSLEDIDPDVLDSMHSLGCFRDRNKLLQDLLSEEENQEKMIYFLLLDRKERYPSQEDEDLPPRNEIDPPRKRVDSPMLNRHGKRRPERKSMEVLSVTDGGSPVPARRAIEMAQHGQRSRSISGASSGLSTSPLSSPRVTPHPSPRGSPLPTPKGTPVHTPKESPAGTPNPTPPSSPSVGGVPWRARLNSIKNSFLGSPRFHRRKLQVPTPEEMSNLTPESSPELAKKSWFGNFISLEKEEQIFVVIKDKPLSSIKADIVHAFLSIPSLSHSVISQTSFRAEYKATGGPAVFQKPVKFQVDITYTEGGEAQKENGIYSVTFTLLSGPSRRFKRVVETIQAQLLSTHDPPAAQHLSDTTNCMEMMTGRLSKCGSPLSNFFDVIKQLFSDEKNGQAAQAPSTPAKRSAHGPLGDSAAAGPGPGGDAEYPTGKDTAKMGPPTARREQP

[15] = target: IGF1R (human) (UniProt P08069)
[16] = target: MAPK13 (human) (UniProt O15264)
[17] = target: RPS6KA2 KD1 KD2 (human) (UniProt Q15349)
RPS6KA2 KD1 KD2 (human), sequence (Q15349 whole entry, looked up): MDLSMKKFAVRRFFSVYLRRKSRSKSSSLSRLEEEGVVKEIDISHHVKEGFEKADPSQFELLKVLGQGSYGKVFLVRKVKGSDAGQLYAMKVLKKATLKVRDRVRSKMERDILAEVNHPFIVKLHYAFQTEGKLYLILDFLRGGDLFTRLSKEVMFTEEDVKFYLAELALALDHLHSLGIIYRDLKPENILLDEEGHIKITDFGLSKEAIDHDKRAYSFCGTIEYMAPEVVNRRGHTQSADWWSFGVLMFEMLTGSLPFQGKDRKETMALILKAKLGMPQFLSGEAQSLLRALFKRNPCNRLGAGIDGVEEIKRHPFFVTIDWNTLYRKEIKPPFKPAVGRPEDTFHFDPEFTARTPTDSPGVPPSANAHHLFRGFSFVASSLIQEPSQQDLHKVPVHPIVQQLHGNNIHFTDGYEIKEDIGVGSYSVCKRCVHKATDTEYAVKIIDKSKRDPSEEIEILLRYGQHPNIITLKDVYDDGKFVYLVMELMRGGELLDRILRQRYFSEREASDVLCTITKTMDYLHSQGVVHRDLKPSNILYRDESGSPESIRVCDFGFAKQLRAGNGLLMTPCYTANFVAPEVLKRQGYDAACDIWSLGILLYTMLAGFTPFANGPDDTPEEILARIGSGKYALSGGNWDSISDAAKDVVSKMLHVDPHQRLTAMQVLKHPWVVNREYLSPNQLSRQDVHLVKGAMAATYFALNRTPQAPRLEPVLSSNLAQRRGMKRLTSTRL

[18] = target: ABL1 (human) (UniProt P00519)
[19] = target: PTK2 (human) (UniProt Q05397)
[20] = target: STK39 (human) (UniProt Q9UEW8)
[21] = target: FES (human) (UniProt P07332)
[22] = target: NEK2 (human) (UniProt P51955)
[23] = target: ROCK1 (human) (UniProt Q13464)
[24] = target: STK38 (human) (UniProt Q15208)
[25] = target: AURKA (human) (UniProt O14965)
[26] = target: CLK1 (human) (UniProt P49759)
[27] = target: TLK2 (human) (UniProt Q86UE8)
[28] = target: TBK1 (human) (UniProt Q9UHD2)
[29] = target: PRKACG (human) (UniProt P22612)
[30] = target: DAPK3 (human) (UniProt O43293)
[31] = target: FYN (human) (UniProt P06241)
[32] = target: TYRO3 (human) (UniProt Q06418)
[33] = target: MAPK9 (human) (UniProt P45984)
[34] = target: SRPK3 (human) (UniProt Q9UPE1)
[35] = target: CAMK2B (human) (UniProt Q13554)
[36] = target: EPHB3 (human) (UniProt P54753)
[37] = target: RPS6KA4 KD2 (human) (UniProt O75676)
[38] = target: RIPK2 (human) (UniProt O43353)
[39] = target: PRKCB2 (human) (UniProt P05771)
[40] = target: TSSK1B (human) (UniProt Q9BXA7)
[41] = target: MET (human) (UniProt P08581)
[42] = target: BLK (human) (UniProt P51451)

MAPK10 (human), sequence (P53779 whole entry, looked up): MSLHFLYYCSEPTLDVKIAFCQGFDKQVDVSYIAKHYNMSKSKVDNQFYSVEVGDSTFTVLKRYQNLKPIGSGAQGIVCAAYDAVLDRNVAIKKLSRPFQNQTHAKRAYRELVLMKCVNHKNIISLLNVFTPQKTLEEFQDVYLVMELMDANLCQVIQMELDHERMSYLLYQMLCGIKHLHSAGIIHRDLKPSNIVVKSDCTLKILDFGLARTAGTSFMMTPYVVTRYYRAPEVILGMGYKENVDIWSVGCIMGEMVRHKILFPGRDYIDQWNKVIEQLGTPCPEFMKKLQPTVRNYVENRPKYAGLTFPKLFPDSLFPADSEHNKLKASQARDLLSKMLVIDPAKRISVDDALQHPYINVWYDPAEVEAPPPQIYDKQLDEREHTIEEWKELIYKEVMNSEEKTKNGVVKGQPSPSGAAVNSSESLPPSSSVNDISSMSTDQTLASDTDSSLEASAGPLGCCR
ROS1 (human), sequence (P08922 whole entry, looked up): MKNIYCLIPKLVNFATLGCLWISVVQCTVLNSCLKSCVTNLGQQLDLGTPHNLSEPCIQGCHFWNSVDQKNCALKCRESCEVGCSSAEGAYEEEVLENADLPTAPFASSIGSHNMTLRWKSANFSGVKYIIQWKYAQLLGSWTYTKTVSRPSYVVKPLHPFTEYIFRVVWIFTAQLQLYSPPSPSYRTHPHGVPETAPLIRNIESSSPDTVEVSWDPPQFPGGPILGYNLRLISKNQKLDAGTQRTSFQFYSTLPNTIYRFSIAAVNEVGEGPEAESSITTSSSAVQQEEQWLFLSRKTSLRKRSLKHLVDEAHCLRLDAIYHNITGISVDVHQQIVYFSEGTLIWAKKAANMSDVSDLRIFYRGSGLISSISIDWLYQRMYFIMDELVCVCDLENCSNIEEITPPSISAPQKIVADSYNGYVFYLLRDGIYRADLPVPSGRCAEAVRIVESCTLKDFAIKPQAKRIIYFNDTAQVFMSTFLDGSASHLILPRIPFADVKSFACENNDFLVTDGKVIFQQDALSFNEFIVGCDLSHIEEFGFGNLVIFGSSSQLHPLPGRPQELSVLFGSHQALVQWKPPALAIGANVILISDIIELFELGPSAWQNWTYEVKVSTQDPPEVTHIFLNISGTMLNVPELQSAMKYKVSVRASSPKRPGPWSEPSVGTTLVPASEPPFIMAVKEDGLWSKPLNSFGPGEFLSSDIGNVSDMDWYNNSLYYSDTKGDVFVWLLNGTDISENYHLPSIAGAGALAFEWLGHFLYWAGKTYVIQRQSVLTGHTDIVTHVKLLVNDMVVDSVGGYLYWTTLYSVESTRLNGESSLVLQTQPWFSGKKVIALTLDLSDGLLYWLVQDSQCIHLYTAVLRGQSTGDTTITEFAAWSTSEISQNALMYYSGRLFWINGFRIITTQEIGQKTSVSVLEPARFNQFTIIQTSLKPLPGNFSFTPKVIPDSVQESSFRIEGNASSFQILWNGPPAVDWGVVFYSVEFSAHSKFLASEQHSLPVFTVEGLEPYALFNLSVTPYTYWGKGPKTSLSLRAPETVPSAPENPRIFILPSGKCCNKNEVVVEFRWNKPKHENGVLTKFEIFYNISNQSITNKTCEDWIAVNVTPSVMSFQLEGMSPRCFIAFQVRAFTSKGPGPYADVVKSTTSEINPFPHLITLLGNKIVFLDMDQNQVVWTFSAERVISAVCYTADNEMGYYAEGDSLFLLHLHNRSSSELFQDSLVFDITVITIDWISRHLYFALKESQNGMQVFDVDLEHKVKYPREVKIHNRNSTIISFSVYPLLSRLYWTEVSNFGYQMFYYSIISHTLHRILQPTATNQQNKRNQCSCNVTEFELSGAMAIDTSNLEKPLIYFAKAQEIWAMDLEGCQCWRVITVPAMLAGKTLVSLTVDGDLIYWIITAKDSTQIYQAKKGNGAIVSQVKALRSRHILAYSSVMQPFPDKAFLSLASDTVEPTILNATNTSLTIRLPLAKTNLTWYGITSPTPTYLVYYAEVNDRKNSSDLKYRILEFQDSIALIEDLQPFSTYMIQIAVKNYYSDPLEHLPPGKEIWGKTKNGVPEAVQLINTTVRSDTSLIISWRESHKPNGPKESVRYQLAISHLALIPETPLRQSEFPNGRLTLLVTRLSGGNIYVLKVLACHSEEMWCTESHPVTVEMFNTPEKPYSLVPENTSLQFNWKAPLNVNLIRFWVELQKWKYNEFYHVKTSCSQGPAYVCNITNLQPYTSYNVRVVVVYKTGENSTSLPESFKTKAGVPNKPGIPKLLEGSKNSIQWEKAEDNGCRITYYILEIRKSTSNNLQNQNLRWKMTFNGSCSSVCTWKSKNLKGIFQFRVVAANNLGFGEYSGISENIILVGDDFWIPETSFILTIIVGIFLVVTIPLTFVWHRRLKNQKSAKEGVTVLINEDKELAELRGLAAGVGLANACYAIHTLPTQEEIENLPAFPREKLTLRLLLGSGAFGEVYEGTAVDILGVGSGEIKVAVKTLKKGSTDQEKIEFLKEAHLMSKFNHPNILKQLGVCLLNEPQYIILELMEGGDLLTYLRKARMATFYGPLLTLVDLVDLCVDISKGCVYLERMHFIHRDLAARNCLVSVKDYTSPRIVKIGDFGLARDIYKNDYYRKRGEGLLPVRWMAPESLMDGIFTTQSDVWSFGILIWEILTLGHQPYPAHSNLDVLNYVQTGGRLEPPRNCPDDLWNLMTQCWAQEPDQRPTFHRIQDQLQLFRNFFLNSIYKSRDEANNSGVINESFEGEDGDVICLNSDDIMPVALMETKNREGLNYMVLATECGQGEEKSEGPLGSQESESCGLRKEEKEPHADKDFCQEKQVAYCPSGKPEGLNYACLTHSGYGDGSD
DCLK2 (human), sequence (Q8N568 whole entry, looked up): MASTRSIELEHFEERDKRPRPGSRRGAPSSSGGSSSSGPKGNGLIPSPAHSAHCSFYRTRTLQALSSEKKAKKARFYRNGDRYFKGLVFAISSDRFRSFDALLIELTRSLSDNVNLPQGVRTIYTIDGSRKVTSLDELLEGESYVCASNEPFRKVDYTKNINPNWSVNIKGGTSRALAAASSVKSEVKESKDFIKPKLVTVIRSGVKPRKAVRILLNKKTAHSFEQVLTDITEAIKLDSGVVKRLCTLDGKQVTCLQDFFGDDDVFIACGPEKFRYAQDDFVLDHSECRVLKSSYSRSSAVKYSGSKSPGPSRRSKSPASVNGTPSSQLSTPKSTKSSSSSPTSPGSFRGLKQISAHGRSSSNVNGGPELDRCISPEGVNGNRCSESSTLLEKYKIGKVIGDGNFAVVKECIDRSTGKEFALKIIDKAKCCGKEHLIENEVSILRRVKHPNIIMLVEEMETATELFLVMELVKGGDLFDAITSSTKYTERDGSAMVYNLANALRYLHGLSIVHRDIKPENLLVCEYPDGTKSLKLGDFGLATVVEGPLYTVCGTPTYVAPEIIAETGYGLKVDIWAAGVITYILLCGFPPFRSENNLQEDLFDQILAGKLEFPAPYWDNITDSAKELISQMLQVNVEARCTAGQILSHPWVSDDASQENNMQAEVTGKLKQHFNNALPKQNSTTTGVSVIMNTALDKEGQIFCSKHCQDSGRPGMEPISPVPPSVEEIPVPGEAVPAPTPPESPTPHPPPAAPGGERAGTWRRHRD

For `Nc1ccc2ncnc(NCCc3ccc(Oc4ccccc4)cc3)c2c1`, the residual activity [1] was 97.8%, the residual activity [2] was 99.1% and the residual activity [3] was 104%. For the same molecule, the residual activity [4] was 112%, the residual activity [5] was 95.4% and the residual activity [6] was 97.6%. For the same molecule, the residual activity [7] was 90.8%, the residual activity [8] was 95.8% and the residual activity [9] was 101%. For the same molecule, the residual activity [10] was 100%, the residual activity [11] was 108% and the residual activity [12] was 95%. It also gave a residual activity [13] of 98.5%, a residual activity [14] of 102% and a residual activity [15] of 99.7%. For the same molecule, the residual activity [16] was 100%, the residual activity [17] was 100% and the residual activity [18] was 89.7%. The residual activity [19] was 98.6%, the residual activity [20] was 83.9% and the residual activity [21] was 99.6%. For the same molecule, the residual activity [22] was 90%, the residual activity [23] was 94.4% and the residual activity [24] was 97.9%. The residual activity [25] was 105%, the residual activity [26] was 101% and the residual activity [27] was 92.8%. For the same molecule, the residual activity [28] was 100%, the residual activity [29] was 110% and the residual activity [30] was 104%. The residual activity [31] was 103%, the residual activity [32] was 101% and the residual activity [33] was 85%. The residual activity [34] was 96.6%, the residual activity [35] was 95.1% and the residual activity [36] was 97.3%. For the same molecule, the residual activity [37] was 107%, the residual activity [38] was 94.6% and the residual activity [39] was 104%. For the same molecule, the residual activity [40] was 100%, the residual activity [41] was 99.9% and the residual activity [42] was 97.1%.
In the case of `CCCC(=O)Oc1ccc2[nH]c(C(=O)c3cc4ccccc4[nH]3)cc2c1`, the residual activity [1] is reported as 97%, the residual activity [2] is reported as 89.2% and the residual activity [3] is reported as 100%. For the same molecule, the residual activity [4] was 89.5%, the residual activity [5] was 93.8% and the residual activity [6] was 85.7%. It also gave a residual activity [7] of 94.3%, a residual activity [8] of 88.9% and a residual activity [9] of 94.3%. The residual activity [10] was 95.5%, the residual activity [11] was 98.6% and the residual activity [12] was 92.1%. The residual activity [13] was 101%, the residual activity [14] was 98.8% and the residual activity [15] was 88.3%. The residual activity [16] was 103%, the residual activity [17] was 85% and the residual activity [18] was 100%. The residual activity [19] was 94.1%, the residual activity [20] was 117% and the residual activity [21] was 97.8%. For the same molecule, the residual activity [22] was 86.8%, the residual activity [23] was 105% and the residual activity [24] was 96.9%. The residual activity [25] was 94.6%, the residual activity [26] was 99.3% and the residual activity [27] was 97.1%. For the same molecule, the residual activity [28] was 119%, the residual activity [29] was 99.8% and the residual activity [30] was 88.5%. The residual activity [31] was 102%, the residual activity [32] was 101% and the residual activity [33] was 76%. It also gave a residual activity [34] of 93.2%, a residual activity [35] of 90% and a residual activity [36] of 94.2%. For the same molecule, the residual activity [37] was 99.1%, the residual activity [38] was 90% and the residual activity [39] was 102%. For the same molecule, the residual activity [40] was 78.1%, the residual activity [41] was 103% and the residual activity [42] was 102%.
With `O=C1NC(=O)c2c1c1c3ccccc3n3c1c1c2c2ccccc2n1C1CCC3O1` the residual activity [1] was 1.6%, the residual activity [2] was 89.6% and the residual activity [3] was 138%. The residual activity [4] was 33%, the residual activity [5] was 0.901% and the residual activity [6] was 76.4%. The residual activity [7] was 9.25%, the residual activity [8] was 15.6% and the residual activity [9] was 93.1%. The residual activity [10] was 81.8%, the residual activity [11] was 4.98% and the residual activity [12] was 28.5%. For the same molecule, the residual activity [13] was 1.91%, the residual activity [14] was 13.6% and the residual activity [15] was 63.8%. The residual activity [16] was 114%, the residual activity [17] was 1.33% and the residual activity [18] was 72.7%. For the same molecule, the residual activity [19] was 23.5%, the residual activity [20] was 88.3% and the residual activity [21] was 42.1%. It also gave a residual activity [22] of 93.8%, a residual activity [23] of 88.7% and a residual activity [24] of 46.2%. It also gave a residual activity [25] of 22.3%, a residual activity [26] of 43.1% and a residual activity [27] of 14.1%. It also gave a residual activity [28] of 7.4%, a residual activity [29] of 39.8% and a residual activity [30] of 24.6%. It also gave a residual activity [31] of 59.9%, a residual activity [32] of 55.3% and a residual activity [33] of 96.1%. It also gave a residual activity [34] of 63.6%, a residual activity [35] of 9.85% and a residual activity [36] of 93.2%. For the same molecule, the residual activity [37] was 12.4%, the residual activity [38] was 79.7% and the residual activity [39] was 6.42%. For the same molecule, the residual activity [40] was 17.7%, the residual activity [41] was 76.9% and the residual activity [42] was 37.7%.
Work on `O=C1Nc2ccc(Cl)cc2/C1=C/c1cc(Cl)c(O)c(Cl)c1` yielded a residual activity [1] of 89.7%, a residual activity [2] of 98% and a residual activity [3] of 98.8%. For the same molecule, the residual activity [4] was 92.2%, the residual activity [5] was 22.4% and the residual activity [6] was 84.4%. The residual activity [7] was 77.1%, the residual activity [8] was 99.5% and the residual activity [9] was 88.4%. The residual activity [10] was 83.5%, the residual activity [11] was 87.4% and the residual activity [12] was 90%. For the same molecule, the residual activity [13] was 11%, the residual activity [14] was 77.2% and the residual activity [15] was 98.3%. It also gave a residual activity [16] of 97.8%, a residual activity [17] of 71.9% and a residual activity [18] of 84%. It also gave a residual activity [19] of 91.5%, a residual activity [20] of 97% and a residual activity [21] of 93.7%. It also gave a residual activity [22] of 86%, a residual activity [23] of 93.2% and a residual activity [24] of 85.4%. For the same molecule, the residual activity [25] was 64.2%, the residual activity [26] was 85% and the residual activity [27] was 105%. It also gave a residual activity [28] of 86.8%, a residual activity [29] of 99.2% and a residual activity [30] of 82.3%. The residual activity [31] was 73%, the residual activity [32] was 94.9% and the residual activity [33] was 100%. It also gave a residual activity [34] of 88.3%, a residual activity [35] of 92% and a residual activity [36] of 91%. For the same molecule, the residual activity [37] was 98%, the residual activity [38] was 50.2% and the residual activity [39] was 97.5%. It also gave a residual activity [40] of 88.2%, a residual activity [41] of 96.4% and a residual activity [42] of 102%.
